Here are results for five compounds from ChEMBL document CHEMBL1201862, “PubChem BioAssay data set” (2004).

Each structure is given as a SMILES string.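 How tested: cells in 96-well plates exposed to compound for 48 hours at five concentrations. GI50: concentration for 50% inhibition of growth.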 The source made the active and inactive calls. No stated cut-off is given here; in the data, active = GI50 up to about 1.1 µM and inactive = higher.

Among the test systems are SF-295; CCRF-CEM; OVCAR-4; U-251; NCI-H522; NCI-H23; A549; HCT-15; SW-620; SF-539; M14; ACHN; NCI-H460; EKVX; OVCAR-8; SN12C; SNB-75; UACC-62; LOX IMVI; MOLT-4.
What all share (assay): inhibition of tumour cell growth, NCI panel, 48 h

On to `O=C1C(c2ccc(C3=[N+]([O-])c4cc([N+](=O)[O-])ccc4C3=O)cc2)=[N+]([O-])c2cc([N+](=O)[O-])ccc21`, for which the GI50 in the assay on SF-295, in the assay with CCRF-CEM, in the assay with OVCAR-4, with U-251, in the assay on NCI-H522 and with NCI-H23 was > 10 µM (inactive) in each case. Moreover, the GI50 with A549 is > 10 µM (inactive); in the assay on HCT-15, > 10 µM; with SW-620, > 10 µM (inactive); in the assay on SF-539, > 10 µM (inactive); with M14, > 10 µM (inactive); with ACHN it was > 10 µM (inactive). Also, the GI50 with NCI-H460 is > 10 µM (inactive); in the assay with EKVX, > 10 µM (inactive); with OVCAR-8, > 10 µM (inactive); in the assay with SN12C, > 10 µM (inactive); with SNB-75, 36.2 µM (inactive); in the assay on UACC-62 it was > 10 µM (inactive). Moreover, the GI50 in the assay with LOX IMVI and in the assay on MOLT-4 was > 10 µM (inactive) each time.

On to `S=c1sc2cscc2s1`, for which the GI50 in the assay with SF-295 was 54.1 µM (inactive); in the assay with CCRF-CEM, 22 µM (inactive); with OVCAR-4, 16.4 µM (inactive); in the assay with U-251, 53.2 µM (inactive); in the assay with NCI-H522, 19.3 µM (inactive); in the assay with NCI-H23 it was 28.8 µM (inactive). The GI50 is 19.5 µM (inactive) in the assay on A549; 34 µM in the assay with HCT-15; 20.7 µM (inactive) in the assay on SW-620; 23 µM (inactive) in the assay on SF-539; 19.1 µM (inactive) in the assay with M14; 19.4 µM (inactive) in the assay with ACHN. Besides, the GI50 was 24.1 µM (inactive) in the assay on NCI-H460; 19.5 µM (inactive) with EKVX; 21.7 µM (inactive) in the assay with OVCAR-8; 32.6 µM (inactive) in the assay on SN12C; 16.7 µM (inactive) in the assay with SNB-75; 18.2 µM (inactive) in the assay with UACC-62. The GI50 is 39.8 µM (inactive) in the assay on LOX IMVI and 34.4 µM (inactive) in the assay with MOLT-4.

With `Cc1cc(C)c2c(n1)S(=O)(=O)N(CCCN1CCN(c3cccc(C(F)(F)F)c3)CC1)C(C(=O)c1ccccc1)=C2O`, the GI50 is 4.11 µM (inactive) with SF-295; 5.19 µM (inactive) in the assay on CCRF-CEM; 4.66 µM (inactive) in the assay with OVCAR-4; 5.4 µM (inactive) in the assay on U-251; 4 µM (inactive) in the assay with NCI-H522; 5.06 µM (inactive) in the assay on NCI-H23. The GI50 was 4.55 µM (inactive) in the assay on A549; 4.62 µM with HCT-15; 4.13 µM (inactive) in the assay on SW-620; 10.1 µM (inactive) with SF-539; 7.36 µM (inactive) in the assay on M14; 9.04 µM (inactive) in the assay with ACHN. Besides, the GI50 is 4.66 µM (inactive) with NCI-H460; 4 µM (inactive) with EKVX; 5.66 µM (inactive) with OVCAR-8; 4.55 µM (inactive) in the assay with SN12C; 3.48 µM (inactive) with SNB-75; 10.2 µM (inactive) in the assay on UACC-62. Besides, the values for the GI50 in the assay on LOX IMVI and in the assay with MOLT-4 were 3.03 µM (inactive) and 2.67 µM (inactive), respectively.

As for `CCN(CC)CCNCc1cc(Cl)cc2c1OCOC2`, the GI50 in the assay on SF-295, with CCRF-CEM, with OVCAR-4, in the assay with U-251, with NCI-H522 and in the assay with NCI-H23 was > 10 µM (inactive) each time. Further, the GI50 with A549 was > 10 µM (inactive); with HCT-15, > 10 µM; with SW-620 it was > 10 µM (inactive); in the assay on SF-539, > 10 µM (inactive); with M14, > 10 µM (inactive); with ACHN, > 10 µM (inactive). For the same compound, the GI50 in the assay with NCI-H460, with EKVX, in the assay with OVCAR-8, in the assay with SN12C, in the assay on SNB-75 and with UACC-62 was > 10 µM (inactive) each time. The GI50 in the assay on LOX IMVI and with MOLT-4 was > 10 µM (inactive) throughout.

Regarding `CN(C)c1ccc(/C=N/c2ccc(Oc3ccc(Cl)cc3)c(Cl)c2)cc1`, the GI50 is 24.7 µM (inactive) in the assay with SF-295; 10.8 µM (inactive) in the assay with CCRF-CEM; 22.1 µM (inactive) in the assay with OVCAR-4; 16.9 µM (inactive) in the assay with U-251; 13.8 µM (inactive) with NCI-H522; 19 µM (inactive) in the assay on NCI-H23. Besides, the GI50 was 18.7 µM (inactive) in the assay on A549; 18.9 µM in the assay on HCT-15; 30.3 µM (inactive) in the assay with SW-620; 16.9 µM (inactive) with SF-539; 28.1 µM (inactive) in the assay with M14; 28.6 µM (inactive) in the assay with ACHN. Besides, the GI50 with NCI-H460 is 19.5 µM (inactive); with EKVX, 17.5 µM (inactive); with OVCAR-8 it was 17.5 µM (inactive); in the assay on SN12C, 21.6 µM (inactive); in the assay on SNB-75 it was 13.1 µM (inactive); with UACC-62 it was 17.5 µM (inactive). In addition, the GI50 with LOX IMVI was 17.9 µM (inactive); in the assay on MOLT-4, 18.5 µM (inactive).
